Assay results published in patent US6551796B1, “Nucleic acid encoding urate transporter and methods of use thereof” (Mount Sinai School of Medicine, priority 1997, dated 2003).
One block for each compound: values may come before it.

Assays:
Type in all cases: biochemical
[1] = biological target: T1, hUAT (human urate transporter/channel, galectin 9) (Homo sapiens, UniProt O00182); test: Channel activity of recombinant human UAT (galectin 9) reconstituted in lipid bilayer
T1 construct: 6-histidine tag (N); made in house
T1 sequence (O00182 1-323 isoform O00182-2): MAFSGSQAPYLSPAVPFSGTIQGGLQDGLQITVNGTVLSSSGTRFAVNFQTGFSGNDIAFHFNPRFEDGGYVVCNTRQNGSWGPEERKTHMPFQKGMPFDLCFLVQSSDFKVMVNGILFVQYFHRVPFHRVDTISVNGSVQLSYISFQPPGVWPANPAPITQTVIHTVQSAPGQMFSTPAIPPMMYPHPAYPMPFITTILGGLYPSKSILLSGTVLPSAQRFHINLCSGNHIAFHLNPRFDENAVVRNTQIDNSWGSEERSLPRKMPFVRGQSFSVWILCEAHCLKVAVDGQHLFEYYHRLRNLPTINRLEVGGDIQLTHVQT
Experimental: Galactin 9 was reported to be a secreted neutrophil chemoattractant. However, galectin 9 has more than 75% amino acid homology to the rat urate transporter/channel. To test whether galectin 9 is the human plasma membrane-associated urate transporter channel, cDNA was generated by RT-PCR of RNA from WBC of a normal donor and fused with an amino terminal 6-histidine tag in a bacterial expression vector. Recombinant protein (hUAT) was prepared and then purified on a Ni-NTA column. hUTA was sonicated into liposomes, fused with a lipid bilayed, and channel activity was recorded. Channel activity was only detected in the presence of urate. […] This difference in voltage sensitivity is consistent with the absence of a positively charged amino acid in hUAT in a region of the putative voltage sensing loop within rat UAT.
In a continued search for local blocks of homology between rat and human UAT and known proteins, a highly significant block of homology to copper chaperones was detected in the carboxy terminus of both the rat and human UAT. Based on the possibility that this portion of UAT binds copper, like copper chaperones, experiments were conducted to determine whether copper was able to modulate UAT channel activity. Using rat and human recombinant UAT it was observed that copper plays an important role in modulating channel activity.
The rat and human urate transporter/channel amino acid sequence contains two galactose binding sites. In the molecular model of the urate transporter/channel, both of these sites reside in extracellular domains of the protein. One site is located between the putative first and second transmembrane domain, the second is located between the putative third and fourth transmembrane domains. Experiments indicate that the addition of lactose (less than 50 μM) to the side of the bilayer chamber that is believed to face the extracellular domains of the protein alters the biophysical properties of the human urate transporter channel. […] In vivo, this could result in increased urate excretion and ultimately a reduction in plasma urate concentration.

[2] = biological target: T2, recombinant UAT (urate transporter/channel) (Rattus norvegicus, UniProt P97840, L187H); test: Channel activity of recombinant rat UAT reconstituted in planar lipid bilayer (patch clamp recording); details: for effect on channel activity, cis (cytoplasmic) side: agent added to cis chamber / cytoplasmic side of UAT; for concentration that completely blocked channel activity: agent in trans chamber (extracellular side of UAT); for reversibility of block of channel activity: replacing the agent-containing solution with agent-free urate solution
T2 construct: 6-histidine metal chelating domain (pRSET A leader) (N); made in house; host or cells: E. coli BL21(DE3)pLysE, vector pRSET A
T2 sequence (P97840 1-322 isoform P97840-2 L155H): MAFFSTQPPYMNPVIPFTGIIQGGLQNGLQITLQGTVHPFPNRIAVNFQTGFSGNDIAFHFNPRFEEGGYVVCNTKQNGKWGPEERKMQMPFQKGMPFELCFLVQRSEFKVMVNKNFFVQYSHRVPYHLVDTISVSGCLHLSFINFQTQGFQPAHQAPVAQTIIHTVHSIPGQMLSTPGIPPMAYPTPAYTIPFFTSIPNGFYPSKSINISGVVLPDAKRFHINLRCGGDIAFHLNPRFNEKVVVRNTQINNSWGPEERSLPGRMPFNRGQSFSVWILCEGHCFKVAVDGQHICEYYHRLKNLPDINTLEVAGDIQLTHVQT
Experimental: (§1) A mixture of bovine phosphatidyl-ethanolamine (PE, 10 mg/ml), and phosphatidylserine (PS, 10 mg/ml) (Avanti Polar Lipids, Birmingham. Ala.) in a ratio of 1:1 (wt/wt) was evaporated to dryness under nitrogen. The resultant phospholipid pellet was suspended in 48 μl of a solution containing 220 mM KCl, CsCl or Cs2SO4 and 10 mM HEPES-NaOH at pH 7.4. Following the addition of 2 μl recombinant UAT protein (50-100 μg/ml), proteoliposomes were formed by sonicating the mixture for 30 sec at 80 kHz in a bath sonicator (Laboratory Supplies, Hicksville, N.Y.) as described by Leal-Pinto et al. (1995) J. Membrane Biol. 146:123. In some experiments, proteoliposomes were prepared with the same lipids but with 10 μl recombinant HIV-1 Tat protein, as described by Zagury et al. (1996) Cellular Pharm.—AIDS Sciences 3:97 at 380 μg/ml and 40 μl of 220 mM Cs2SO4, 10 mM HEPES-NaOH at pH 7.4. Fresh proteoliposomes were prepared for each experiment.
(§2) The lipid bilayer chamber was identical to that described by Leal-Pinto et al. (1995) J. Membrane Biol. 146:123. The two cups of the plexiglass bilayer chamber were each initially filled with 1 ml of a solution whose electrolyte composition was identical to that in which the proteoliposomes were prepared. A 1:1 (wt/wt) mixture of bovine brain PE (10 mg/ml) and PS (10 mg/ml) (Avanti Polar Lipids) was dried with a nitrogen stream, dissolved in decane (Sigma Chemical Co.) to 50 mg lipid/ml and then painted with a club-shaped glass rod onto a 50 um hole in a Teflon film (Type C-20, 12.5 um thick, Dupont Electronics, Wilmington, Del.) that was fitted between the two cups of the chamber. Offset potentials due to all junction potentials were corrected by using the zero adjust system of the patch clamp amplifier (Model PC-501, Warner Instrument Co.). The voltage was subsequently clamped at varying levels (−100 to +100 mV): voltage was generated and controlled by the patch clamp amplifier. If a stable resistance of at least 100 gigohms and a noise of less than 0.2 pA were maintained, the experiments were initiated.
(§3) Experiments were initiated by adding proteoliposomes to the trans chamber (1 μl of UAT or 5-50 μl of HIV-1 Tat proteoliposomes). The solution was stirred until fusion occurred. Fusion usually occurred within 2-3 minutes of the addition of UAT-containing proteoliposomes, evidenced by the presence of channel gating (clear transitions between the closed and open states). Once fusion occurred the stirrers were stopped and the solution in the trans chamber was replaced with 1 ml of an identical solution, without proteoliposomes, to limit further channel incorporation. In all experiments channel activity was initially evaluated in the presence of symmetrical solutions of 2.5 mM urate in either 220 mM KCl, CsCl, or Cs2SO4, 10 mM HEPES-NaOH, and 0.25 mM CaCl2 at pH 7.4. In some experiments channel activity was compared in the absence and presence of 5 mM Ba^+−. To evaluate channel selectivity, experiments were performed in symmetrical solutions of 2.5 mM urate, but with infinite gradients of K^+, Cs^−, Ca^−−, Cl^− and/or SO4^═ established by using the following combination of buffered solutions in the cis and trans chambers, respectively: a) CsCl and KCl, b) Cs2SO4 and CsCl, and c) Cs2SO4 with Ca^−+ and Cs2SO4 without Ca^−+. Selectivity was also evaluated in symmetrical solutions of 220 mM Cs2SO4, 10 mM HEPES-NaOH, and 0.25 mM CaCl2 at pH 7.4 in the presence of a 10:1 urate gradient: the 2.5 mM urate, buffered Cs2SO4 solution in the trans chamber was replaced with a Cs2SO4 solution containing 0.25 mM urate. In a final group of experiments, channel activity was compared in symmetrical solutions of 2.5 mM urate, 220 mM Cs2SO4, 10 mM HEPES-NaOH, and 0.25 mM CaCl2 at pH 7.4 before and after an increasing amount of non-immune IgG (up to 200 μg) or the IgG fraction of antiporcine uricase (up to 15 μg) was sequentially added to each side of the lipid bilayer. […]

[3] = biological target: T3, recombinant UAT (urate transporter/channel) (Rattus norvegicus, UniProt P97840); test: as above; details: 2.5 mM urate cis : 2.5 mM oxonate trans
T3 construct: 6-histidine metal chelating domain (pRSET A leader) (N); made in house; host or cells: E. coli BL21(DE3)pLysE, vector pRSET A
T3 sequence (P97840 1-322 isoform P97840-2 L155H): as above
Experimental: as §1, §2, §3

[4] = less than 50 μM on the side facing the extracellular domains
[5] = less than 1 μM copper added to the bathing solution

SMILES: [Cu] [copper]
effect on channel activity [1, 5]: significantly increases channel activity
open probability of the human channel after addition ([1]; less than 1 μM copper, from 5-15% before addition): 50-60%
effect on channel activity [2, 5]: significantly increases channel activity

SMILES: O=C(O)c1cnccn1 [PZA, pyrazinoate]
effect on channel activity, cis (cytoplasmic) side [2]: without effect
concentration that completely blocked channel activity ([2]; mean±SE): 24.1 ± 8.9 µM
reversibility of block of channel activity [2]: reversed

SMILES: [Ba+2] [Ba^+−]
effect on channel activity ([2]; 5 mM, symmetrical 2.5 mM urate and 220 mM KCl): failed to alter channel activity

SMILES: Nc1ncnc2c1ncn2[C@@H]1O[C@H](CO)[C@@H](O)[C@H]1O [adenosine]
effect on channel activity from the trans side of the bilayer [1]: blocked channel activity
effect on channel activity, cis (cytoplasmic) side [2]: failed to block channel activity
concentration that completely blocked channel activity ([2]; mean±SE): 4.6 ± 2.6 µM

Second part, the compound after the results:

effect on current [1, 4]: increase in current
effect on stability of the channel in the lipid bilayer [1, 4]: apparent stabilization of the channel
SMILES: OC[C@H]1O[C@@H](O[C@H]2[C@H](O)[C@@H](O)C(O)O[C@@H]2CO)[C@H](O)[C@@H](O)[C@H]1O (some centres unmarked) [lactose]

effect on channel activity, trans side ([2]; 250 μM on the trans side of the channel, symmetrical urate): not affected
concentration at which channel activity was 97% blocked ([2]; oxonate in cis (cytoplasmic) chamber, symmetrical 2.5 mM urate, mean±SE, n=3): 108 ± 16 µM
reversibility of block of channel activity [2]: reversed
channel activity under bi-ionic conditions [3]: ceased after approximately one hour
SMILES: O=C(O)c1nc(=O)[nH]c(=O)[nH]1 [oxonate]

effect on channel activity from the trans side of the bilayer [1]: blocked channel activity
SMILES: NC(=O)c1cnccn1 [pyrazinamide]

effect on channel activity, cis (cytoplasmic) side [2]: blocked channel activity
concentration that completely blocked channel activity ([2]; mean±SE): 4.6 ± 1.5 µM
ratio of blocking concentration, extracellular side versus cytoplasmic face ([2]; complete block of channel activity): approximately one-tenth
SMILES: O=c1[nH]c(=O)c2[nH]cnc2[nH]1 [xanthine]
